Measurements published in US4100346A, “Certain 7(o-amino-methyl- or methylaminomethylphenyl- or cyclohexadienyl- or thienylacetamide)-3[1-carboxymethyl-(or ethyl- or propyl-)-tetrazol-5-ylthiomethyl]-3-cephem-4-carboxylic acids” (Bristol-Myers Company, priority 1976, dated 1978).
Converted amounts (≈) assume the structure as drawn. Read-outs that look alike come from different tables or passages of the source.

What was measured:
[1] = system: Staphylococcus Aureus; test: Effect of inoculum size on susceptibility of Staphylococcus aureus; assay type: cell-based; settings: for MICB /MICA: MIC at 10^6 over MIC at 10^2 organisms; for MIC: Staphylococcus aureus, geometric means, read-out: Minimum inhibitory concentration
[2] = molecular target: β-lactamase Class I Type a, Enterobacter cloacae 214 (Enterobacter cloacae, UniProt P05364); assay type: biochemical
Chain of β-lactamase Class I Type a, Enterobacter cloacae 214 (P05364 21-381): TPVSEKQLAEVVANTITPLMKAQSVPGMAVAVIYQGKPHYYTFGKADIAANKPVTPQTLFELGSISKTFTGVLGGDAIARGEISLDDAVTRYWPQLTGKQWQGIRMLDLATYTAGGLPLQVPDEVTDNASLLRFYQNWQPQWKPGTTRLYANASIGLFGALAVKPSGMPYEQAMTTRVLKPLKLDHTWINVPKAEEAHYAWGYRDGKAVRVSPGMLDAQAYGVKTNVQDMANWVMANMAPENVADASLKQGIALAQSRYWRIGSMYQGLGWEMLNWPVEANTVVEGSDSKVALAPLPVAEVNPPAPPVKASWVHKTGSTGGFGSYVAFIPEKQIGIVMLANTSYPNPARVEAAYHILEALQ
Protocol: (§1) Miscellaneous. Methods for determining bactericidal activity and susceptibility to cell-free β-lactamase were those previously used; Leitner et al., BL-S640, A Cephalosporin With a Broad Spectrum of Antibacterial Activity: Properties in vitro, Antimicrob. Agents Chemother.
(§2) Susceptibility to β-lactamase. Susceptibility to enzymic hydrolysis was assessed by determining relative rates of hydrolysis by cell-free preparations of various β-lactamases (Table 6).

[3] = molecular target: β-lactamase Class I Type b, Escherichia coli 719 (Escherichia coli, UniProt P00811); assay type: biochemical
Chain of β-lactamase Class I Type b, Escherichia coli 719 (P00811 20-377): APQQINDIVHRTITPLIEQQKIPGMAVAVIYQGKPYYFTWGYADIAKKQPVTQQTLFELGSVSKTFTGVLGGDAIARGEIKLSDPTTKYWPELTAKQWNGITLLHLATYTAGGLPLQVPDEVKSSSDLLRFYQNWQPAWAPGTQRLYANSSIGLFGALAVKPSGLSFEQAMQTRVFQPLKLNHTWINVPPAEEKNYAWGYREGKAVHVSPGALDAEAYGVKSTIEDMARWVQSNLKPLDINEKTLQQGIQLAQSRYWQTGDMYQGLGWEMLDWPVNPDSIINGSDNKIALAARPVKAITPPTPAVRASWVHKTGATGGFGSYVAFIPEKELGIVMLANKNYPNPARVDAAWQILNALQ
Protocol: as §1, §2

[4] = system: β-lactamase Class II Type a, Proteus mirabilis 1266; assay type: biochemical
Protocol: as §1, §2

[5] = molecular target: T1, β-lactamase Class III Type a, Escherichia coli TEM (Escherichia coli, UniProt P62593); assay type: biochemical
T1 construct: cell-free preparations of various β-lactamases; endogenous in cells; host or cells: Escherichia coli strain TEM
T1 sequence (P62593 24-286 limits assumed): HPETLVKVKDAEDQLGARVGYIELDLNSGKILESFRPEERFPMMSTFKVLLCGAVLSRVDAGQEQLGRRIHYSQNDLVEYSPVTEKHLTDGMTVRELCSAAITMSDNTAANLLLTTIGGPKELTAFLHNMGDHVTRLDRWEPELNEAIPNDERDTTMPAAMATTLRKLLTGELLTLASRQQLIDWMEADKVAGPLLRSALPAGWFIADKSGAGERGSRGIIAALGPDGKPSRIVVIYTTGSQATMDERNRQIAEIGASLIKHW
Protocol: as §1, §2

[6] = system: β-lactamase Class IV Type a, Klebsiella pneumoniae 53; assay type: biochemical
Protocol: as §1, §2

[7] = system: β-lactamase Class IV Type b, Klebsiella pneumoniae 1169; assay type: biochemical
Protocol: as §1, §2

[8] = system: Citrobacter sp.; test: Intramuscular treatment of systemically infected mice; assay type: in vivo; settings: im, Citrobacter sp. strain 1, challenge 5×10^6 -2×10^7, treated 1 and 3.5 hours after infection, read-out: PD50 /treatment
Excerpt: (§3) Treatment of Systemically Infected Mice. The procedures were identical with those published previously [Leitner et al., BL-S640, a Cephalosporin With a Broad Spectrum of Antibacterial Activity: Bioavailability and Therapeutic Properties in Rodents, Antimicrob. Agents Chemother. 7:306-310, (1975)], except that:
(§4) (a) the hog gastric mucin used in infections with Staphylococcus aureus No. 2 was purchased from American Laboratories, Inc., Omaha, Neb. (lot No. 154163) and b) that the medium used to suspend all other organisms contained 3% (rather than 4%) hog gastric mucin (type 1701W, Wilson Laboratories, Inc., Park Forest South, Ill.).
(§5) *Animals were treated twice; 1 and 3.5 hours after infection.

[9] = system: Escherichia coli; test: as above; assay type: in vivo; settings: im, 3.5 h, read-out: PD50 /treatment
Excerpt: as §3, §4, §5

[10] = system: Klebsiella pneumoniae; test: as above; assay type: in vivo; settings: im, 3.5 h, read-out: PD50 /treatment
Excerpt: as §3, §4, §5

[11] = system: Proteus mirabilis; test: as above; assay type: in vivo; settings: im, 3.5 h, read-out: PD50 /treatment
Excerpt: as §3, §4, §5

[12] = system: Proteus morganii; test: as above; assay type: in vivo; settings: Morganella morganii, im, 3.5 h, read-out: PD50 /treatment
Excerpt: as §3, §4, §5

[13] = system: Proteus rettgeri; test: as above; assay type: in vivo; settings: Providencia rettgeri, im, Proteus rettgeri strain 4, challenge 2×10^6 -3×10^6, treated 1 and 3.5 hours after infection, read-out: PD50 /treatment
Excerpt: as §3, §4, §5

[14] = system: Proteus vulgaris; test: as above; assay type: in vivo; settings: im, 3.5 h, read-out: PD50 /treatment
Excerpt: as §3, §4, §5

[15] = system: Providencia stuartii; test: as above; assay type: in vivo; settings: im, 3.5 h, read-out: PD50 /treatment
Excerpt: as §3, §4, §5

[16] = Recovery in urine after intramuscular injection; settings: rat, im, 10 mg/kg
[17] = system: Edwardsiella tarda; test: Growth inhibitory activity, antibiotic dilution technique; settings: read-out: Minimum inhibitory concentration
[18] = system: Arizona hinshawii; test: as above; settings: Salmonella enterica, read-out: Minimum inhibitory concentration
[19] = system: Escherichia coli; test: Effect of inoculum size on susceptibility of Enterobacteriaceae
[20] = system: Klebsiella pneumoniae; test: as above
[21] = Antibiotic concentration in blood after intramuscular injection; settings: mouse, im

SMILES: O=C(Cc1cccs1)N[C@@H]1C(=O)N2C(C(=O)[O-])=C(C[n+]3ccccc3)CS[C@H]12 [Cephaloridine]
- MICB /MICA ([1]; Lacking penicillinase, 3 strains): 1.6
- MICB /MICA ([1]; Penicillinase producer, 26 strains): 20
- MIC ([1]; Lacking penicillinase, 3 strains, A, Inoculum of 10^2 organisms): 0.025 µg/mL (≈ 0.0602 µM)
- MIC ([1]; Lacking penicillinase, 3 strains, B, inoculum of 10^6 organisms): 0.039 µg/mL (≈ 0.0939 µM)
- MIC ([1]; Penicillinase producer, 26 strains, A, Inoculum of 10^2 organisms): 0.077 µg/mL (≈ 0.185 µM)
- MIC ([1]; Penicillinase producer, 26 strains, B, inoculum of 10^6 organisms): 1.6 µg/mL (≈ 3.85 µM)
- effect of cell concentration on growth inhibitory activity ([1]; penicillinase-producing strains): sharply
- Relative Rate of Hydrolysis (benzylpenicillin = 100) [2]: 7900
- Relative Rate of Hydrolysis (benzylpenicillin = 100) [3]: 370
- Relative Rate of Hydrolysis (benzylpenicillin = 100) [4]: 2
- Relative Rate of Hydrolysis (benzylpenicillin = 100) [5]: 93
- Relative Rate of Hydrolysis (benzylpenicillin = 100) [6]: 100
- Relative Rate of Hydrolysis (benzylpenicillin = 100) [7]: 50
- ED50 [8]: 36 mg/kg
- ED50 ([9]; Escherichia coli strain 1, challenge 2×10^5 organisms, treated 1 and 3.5 hours after infection): 2.6 mg/kg
- ED50 ([9]; Escherichia coli strain 8, challenge 6×10^5 -4×10^6, treated 1 and 3.5 hours after infection): 2.2 mg/kg
- ED50 ([9]; Escherichia coli strain 9, challenge 7×10^3 -2×10^4, treated 1 and 3.5 hours after infection): 13 mg/kg
- ED50 ([10]; Klebsiella pneumoniae strain 1, challenge 4×10^4 -5×10^4, treated 1 and 3.5 hours after infection): 8 mg/kg
- ED50 ([10]; Klebsiella pneumoniae strain 7, challenge 9×10^2 -1×10^3, treated 1 and 3.5 hours after infection): 41 mg/kg
- ED50 ([11]; Proteus mirabilis strain 1, challenge 7×10^6 -9×10^6, treated 1 and 3.5 hours after infection): 19 mg/kg
- ED50 ([11]; Proteus mirabilis strain 5, challenge 9×10^5 -3×10^6, treated 1 and 3.5 hours after infection): 4 mg/kg
- ED50 ([11]; Proteus mirabilis strain 8, challenge 6×10^5 -4×10^6, treated 1 and 3.5 hours after infection): 5.5 mg/kg
- ED50 ([12]; Proteus morganii strain 1, challenge 1×10^5 -4×10^5, treated 1 and 3.5 hours after infection): 180 mg/kg
- ED50 ([12]; Proteus morganii strain 2, challenge 2×10^6 -3×10^6, treated 1 and 3.5 hours after infection): 230 mg/kg
- ED50 [13]: 66 mg/kg
- ED50 ([14]; Proteus vulgaris strain 1, challenge 1×10^6 -2×10^6, treated 1 and 3.5 hours after infection): 6.4 mg/kg
- ED50 ([14]; Proteus vulgaris strain 3, challenge 4×10^5, treated 1 and 3.5 hours after infection): 10 mg/kg
- ED50 ([15]; Providencia stuartii strain 2, challenge 1×10^6 ×5×10^6, treated 1 and 3.5 hours after infection): 180 mg/kg
- ED50 ([15]; Providencia stuartii strain 3, challenge 2×10^7, treated 1 and 3.5 hours after infection): 150 mg/kg
- dose excreted at 24 h [16]: 59%
- MIC [17]: 1 µg/mL (≈ 2.41 µM)
- MIC [18]: 2 µg/mL (≈ 4.81 µM)
- MIC ([19]; read-out: Minimum Inhibitory Concentration, Escherichia coli strain 1, A, Inoculum of 10^2 organisms): 2 µg/mL (≈ 4.81 µM)
- MIC ([19]; read-out: Minimum Inhibitory Concentration, Escherichia coli strain 1, B, Inoculum of 10^6 organisms): 8 µg/mL (≈ 19.3 µM)
- MIC ([19]; read-out: Minimum Inhibitory Concentration, Escherichia coli strain 2, A, Inoculum of 10^2 organisms): 4 µg/mL (≈ 9.63 µM)
- MIC ([19]; read-out: Minimum Inhibitory Concentration, Escherichia coli strain 2, B, Inoculum of 10^6 organisms): 16 µg/mL (≈ 38.5 µM)
- MIC ([19]; read-out: Minimum Inhibitory Concentration, Escherichia coli strain 3, A, Inoculum of 10^2 organisms): 2 µg/mL (≈ 4.81 µM)
- MIC ([19]; read-out: Minimum Inhibitory Concentration, Escherichia coli strain 3, B, Inoculum of 10^6 organisms): 4 µg/mL (≈ 9.63 µM)
- MIC ([19]; read-out: Minimum Inhibitory Concentration, Escherichia coli strain 4, A, Inoculum of 10^2 organisms): 2 µg/mL (≈ 4.81 µM)
- MIC ([19]; read-out: Minimum Inhibitory Concentration, Escherichia coli strain 4, B, Inoculum of 10^6 organisms): 4 µg/mL (≈ 9.63 µM)
- MIC ([19]; read-out: Minimum Inhibitory Concentration, Escherichia coli strain 5, A, Inoculum of 10^2 organisms): 4 µg/mL (≈ 9.63 µM)
- MIC ([19]; read-out: Minimum Inhibitory Concentration, Escherichia coli strain 5, B, Inoculum of 10^6 organisms): 8 µg/mL (≈ 19.3 µM)
- MIC ([19]; read-out: Minimum Inhibitory Concentration, Escherichia coli strain 6, A, Inoculum of 10^2 organisms): 2 µg/mL (≈ 4.81 µM)
- MIC ([19]; read-out: Minimum Inhibitory Concentration, Escherichia coli strain 6, B, Inoculum of 10^6 organisms): 8 µg/mL (≈ 19.3 µM)
- MIC ([19]; read-out: Minimum Inhibitory Concentration, Escherichia coli strain 7, A, Inoculum of 10^2 organisms): 2 µg/mL (≈ 4.81 µM)
- MIC ([19]; read-out: Minimum Inhibitory Concentration, Escherichia coli strain 7, B, Inoculum of 10^6 organisms): 4 µg/mL (≈ 9.63 µM)
- MIC ([20]; read-out: Minimum Inhibitory Concentration, Klebsiella pneumoniae strain 1, A, Inoculum of 10^2 organisms): 2 µg/mL (≈ 4.81 µM)
- MIC ([20]; read-out: Minimum Inhibitory Concentration, Klebsiella pneumoniae strain 1, B, Inoculum of 10^6 organisms): 4 µg/mL (≈ 9.63 µM)
- MIC ([20]; read-out: Minimum Inhibitory Concentration, Klebsiella pneumoniae strain 2, A, Inoculum of 10^2 organisms): 2 µg/mL (≈ 4.81 µM)
- MIC ([20]; read-out: Minimum Inhibitory Concentration, Klebsiella pneumoniae strain 2, B, Inoculum of 10^6 organisms): 8 µg/mL (≈ 19.3 µM)
- MIC ([20]; read-out: Minimum Inhibitory Concentration, Klebsiella pneumoniae strain 3, A, Inoculum of 10^2 organisms): 2 µg/mL (≈ 4.81 µM)
- MIC ([20]; read-out: Minimum Inhibitory Concentration, Klebsiella pneumoniae strain 3, B, Inoculum of 10^6 organisms): 16 µg/mL (≈ 38.5 µM)
- MIC ([20]; read-out: Minimum Inhibitory Concentration, Klebsiella pneumoniae strain 4, A, Inoculum of 10^2 organisms): 2 µg/mL (≈ 4.81 µM)
- MIC ([20]; read-out: Minimum Inhibitory Concentration, Klebsiella pneumoniae strain 4, B, Inoculum of 10^6 organisms): 8 µg/mL (≈ 19.3 µM)
- MIC ([20]; read-out: Minimum Inhibitory Concentration, Klebsiella pneumoniae strain 5, A, Inoculum of 10^2 organisms): 2 µg/mL (≈ 4.81 µM)
- MIC ([20]; read-out: Minimum Inhibitory Concentration, Klebsiella pneumoniae strain 5, B, Inoculum of 10^6 organisms): 16 µg/mL (≈ 38.5 µM)
- MIC ([20]; read-out: Minimum Inhibitory Concentration, Klebsiella pneumoniae strain 6, A, Inoculum of 10^2 organisms): 2 µg/mL (≈ 4.81 µM)
- MIC ([20]; read-out: Minimum Inhibitory Concentration, Klebsiella pneumoniae strain 6, B, Inoculum of 10^6 organisms): 16 µg/mL (≈ 38.5 µM)
- half-life [21]: 22 min
- Cmax ([21]; 20 mg/kg): 23000 ng/mL
